In PubChem BioAssay AID1671282:

Biological target: Tyrosine-protein kinase Fyn (Homo sapiens) (UniProt P06241)
Test: FYN kinase inhibition, dose response, biochemical, Z'-LYTE, FRET readout, direct format (AID 1671282)
Details: Z'-LYTE FRET kinase assay, recombinant FYN

Tyrosine-protein kinase Fyn (Homo sapiens), sequence (P06241 whole entry, looked up): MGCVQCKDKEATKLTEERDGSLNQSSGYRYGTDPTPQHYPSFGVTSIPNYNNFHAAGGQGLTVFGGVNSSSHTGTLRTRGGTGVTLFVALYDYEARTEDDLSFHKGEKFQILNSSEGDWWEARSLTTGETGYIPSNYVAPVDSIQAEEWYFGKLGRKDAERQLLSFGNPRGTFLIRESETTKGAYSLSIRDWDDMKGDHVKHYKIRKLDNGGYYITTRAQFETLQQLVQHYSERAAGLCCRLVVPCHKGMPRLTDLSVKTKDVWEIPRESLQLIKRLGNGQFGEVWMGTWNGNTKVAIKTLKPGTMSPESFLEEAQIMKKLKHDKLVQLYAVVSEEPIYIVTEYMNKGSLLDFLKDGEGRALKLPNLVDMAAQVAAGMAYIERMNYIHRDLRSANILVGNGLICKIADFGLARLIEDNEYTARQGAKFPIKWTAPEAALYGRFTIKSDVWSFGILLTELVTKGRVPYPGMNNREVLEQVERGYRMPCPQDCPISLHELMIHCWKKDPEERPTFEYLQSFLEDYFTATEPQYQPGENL

Work on COc1cc2ncnc(Nc3cccc(Cl)c3)c2cc1OC yielded an IC50 of 8.78 µM.
